# From US20060062862A1, “Cholesterol-reducing agent made of dietary fibre and cholesterol-reducing substances” (priority 2002, published 2006)
# Tested on: Male Syrian hamsters, feed enriched with 0.35% cholesterol
# Experiment: Hypocholesterolemic activity of carob fiber and statins in vivo
# Parameters: species or system Syrian hamster
# Settings: 28 days, in feed: carob fiber 2.5%, simvastatin 1.5 mg %
# Source text: Determination of the Hypocholesterolemic Activity of Carob Fiber and Statins In Vivo Hamsters are seen as a suitable animal model for propounding the present invention, even if the metabolic processes in hamsters and humans differ slightly. At all events, the two substances tested here in combination each give alone in humans a reducing effect on the serum cholesterol values, in particular on LDL cholesterol. The effect of a combined administration of carob fiber and a statin, here simvastatin, in this model should therefore also give conclusions for humans. Male Syrian hamsters (100-120 g at the start of the study) received feed enriched with 0.35% cholesterol. […] The hamsters were divided into groups of 9 animals and treated with the test substances over a period of 28 days. After the animals were anesthetized, blood was obtained for determining the serum cholesterol values. The serum cholesterol contents were determined after obtaining the plasma from whole blood using a commercially obtained enzyme test kit. The total cholesterol content of the test groups thus determined were compared with the results of a control group which received no test substances.
structure (smiles),measurement,setting,value
"CCC(C)(C)C(=O)O[C@H]1C[C@@H](C)C=C2C=C[C@H](C)[C@H](CC[C@@H]3C[C@@H](O)CC(=O)O3)[C@H]21 [Simvastatin, simvastatin]",Total cholesterol in blood serum,"0.35% cholesterol feed, control 7.65",6.50 mmol/L
same,Changes from the control in %,total serum cholesterol vs control group,15%
